Test results reported in publication PMC9658316, “Discovery of Mitochondrial Complex I Inhibitors as Anticancer and Radiosensitizer Drugs Based on Compensatory Stimulation of Lactate Release” (Cancers, 2022).

Columns and labels:
intact CT26 cancer cells = assay: Seahorse basal OCR and ECAR in intact (non-permeabilized) CT26 cancer cells; format: cell-based, mouse; conditions: for restoration of OCR / OXPHOS activity in cells exposed to aa compound: intact CT26 cells exposed to aa
Description: (§1) L-lactate concentration was measured in a semi-automated manner using CMA Microdialysis AB enzymatic assay and a CMA 600 analyzer (Aurora Borealis, Schoonebeek, The Netherlands) as previously described. Briefly, cells (2 × 10^5 cells per well; 3 wells/condition) were seeded in 12-well plates with 2 mL of their routine culture medium. After 24 h, medium was replaced by 500 µL of DMEM containing 10 mmol/L D-glucose and supplemented with 2 mmol/L L-glutamine and 10% dialyzed FBS (Sigma-Aldrich), in the presence of the compounds or vehicle (DMSO). The initial concentration of L-lactate in the experimental medium was also assessed by including control wells containing only cell culture medium (no cells) on each plate. After incubation for 24 h, extracellular media were collected and deproteinized by centrifugation (15 min, 10,000 rpm, 4 °C) in 10 kDa cut-off filter tubes (VWR, Avantor, Leuven, Belgium). Differences in L-lactate concentrations between control and treated cells were calculated and normalized by the protein content in each well and expressed in µmol/h/mg protein. Oxygen-consumption rate (OCR) was measured using the Seahorse XF96 plate reader as previously reported. Briefly, cells (2 × 10^4 cells per well) were first permeabilized with 1 nM Seahorse XF Plasma Membrane Permeabilizer (#102504-100; Agilent, Machelen, Belgium) and respiration was stimulated by adding 10 mM pyruvate, 5 mM malate, and 2 mM ADP. After baseline OCR determination, compounds were added (to inhibit complex I) followed by 10 mM succinate to fuel complex II and rescue the electron transport chain. In some experiments, the effects of selected hits on basal OCR were evaluated in intact cells (including in the presence of MCT1/2 inhibitor AR-C155858 [29] or methylpyruvate). OCR data were normalized according to protein content in each well.
Since other lactate transporters could be involved, we also used methylpyruvate which can bypass the need for a mitochondrial carrier and mimic the result of lactate oxidation by a mitochondrial LDH or ensure the delivery of pyruvate into the mitochondria matrix. […] In the same experiments carried out on non-permeabilized cancer cells, the extent of basal OCR inhibition in response to 10 µM aa was similar to that observed with 100 nM IACS-010759 (−52 ± 5% and −45 ± 6%, respectively) and mirrored by an increase in extracellular acidification rate (ECAR) (+36 ± 11% and +29 ± 9%, respectively).

mitochondrial complex I = mitochondrial complex I (Mus musculus, UniProt P03888+Q91WD5+Q9DC70); assay: Seahorse OCR in permeabilized CT26 cancer cells, mitochondrial complex I inhibition (Assay #2); format: cell-based; conditions: for IC50: pyruvate/malate, tested at 1 and 10 µM, read-out: OCR inhib. (IC50); for significant inhibition of complex I: up to 10 µM
Description: as §1
(A–D). Graphs depict changes in O2 consumption rate (OCR) measured with the Seahorse technology on permeabilized CT26 cancer cells upon successive addition of pyruvate/malate, the indicated inhibitor and succinate. […] (E,F).

[1] = system: colorectal CT26 cancer cells; assay: Compound-induced L-lactate release (Assay #1), CT26; format: cell-based, mouse; conditions: 10 µM; for [LAC] increase: 24 h exposure, L-lactate secretion above basal release; for L-lactate release compared with reference compound aa: 24 h
Description: as §1
Figure 3 Compound-induced L-lactate release (Assay #1). Culture medium was collected after 24 h exposure to the indicated compounds (10 µM) and the amount of extracellular L-lactate release was determined in a semi-automated manner; dose-dependent effects of complex I inhibitor IACS are shown on the right (shaded bars). Bar graph depicts the extent of L-lactate secretion above the basal release as determined in the absence of any compound (n = 3, ** p < 0.01 for increased L-lactate release vs. reference compound aa).

CT26 colon cancer cells = assay: Growth inhibitory effects on cultured CT26 cells (Presto Blue); format: cell-based, mouse; conditions: CT26 monolayers, 1 µM, 72 h
Text: (§2) Mouse colorectal CT26 and breast 4T1 cancer cells as well as human cervix cancer SiHa and breast MDA-MD-231 cancer cells were acquired from ATCC where they are regularly authenticated by short tandem repeat profiling. They were stored according to the supplier’s instructions and used within 6 months after resuscitation of frozen aliquots. Cancer cells were maintained in DMEM (Life Technologies, ThermoFischer scientific, Merebelke, Belgium) supplemented with 10% heat-inactivated FBS. All cell lines were tested for mycoplasma contamination with the MycoAlert™ Mycoplasma Detection kit (#LT07-318; Lonza, Verviers, Belgium) before being used. Cell integrity was determined by the Trypan Blue exclusion method (using Bürker chambers) while cell growth was assessed by using the Presto Blue reagent (Life Technologies) according to manufacturer’s instructions.
(§3) Figure 4 Mitochondrial complex I activity inhibition (Assay #2). (A–D). Graphs depict changes in O2 consumption rate (OCR) measured with the Seahorse technology on permeabilized CT26 cancer cells upon successive addition of pyruvate/malate, the indicated inhibitor and succinate. OXPHOS I inhibitor IACS was used as a control in the experiments testing reference compound aa (A), and compound aa (10µM) was used as reference for testing au, ah and at derivatives (B–D) (n = 6 per compound). (E,F). Growth inhibitory effects of cultured CT26 (E) and 4T1 […] cancer cells exposed to 100 nM IACS or 1 µM aa, ag, aj and au compounds for 72 h; data represent the reduced extent (expressed as %) of cell viability (determined with Presto Blue) when compared with vehicle conditions (n = 3).

breast 4T1 cancer cells = assay: Growth inhibitory effects on cultured 4T1 cells (Presto Blue); format: cell-based, mouse; conditions: 4T1 monolayers, 1 µM, 72 h, compared with CT26
Text: as §2, §3

[2] = system: human cervix Siha cancer cells; assay: Growth inhibitory effects on human cancer cells (Presto Blue), SiHa vs MDA-MB-231; format: cell-based; conditions: 1 µM
Text: as §2
Suppl. Figure S3. Growth inhibitory effects of hit compounds on human cancer cells. MDA-M B-231 (A) and Siha (B) cancer cells were exposed to 100 nM IACS or 1 µM aa, ag, aj and au compounds; data represent the reduced extent (expressed as %) of cell viability (determined with Presto Blue) when compared with vehicle conditions (n=3).
(also on this page, place not known: 60Growth inhibitory effects (%) MDA-MB-231 aa au 60Growth inhibitory effects (%))

3D tumor CT26 spheroids = assay: Inhibition of 3D tumor spheroid growth (Assay #3); format: cell-based, mouse; conditions: CT26 spheroids, day 10
Description: Spheroids were prepared by seeding 1500 cells/well in Ultra-Low Attachment 96-well plate (Corning, Merck, Hoeilaart, Belgium) in DMEM supplemented with 10% heat-inactivated FBS. Inhibitors were added on day 4 (mean diameter of spheroids: 300 µm) and renewed every 3 days. Spheroid growth was monitored using live-cell phase contrast microscope (Axio Observer, Zeiss, Zaventem, Belgium); spheroid area, density and morphology were measured using ImageJ software. Confocal fluorescence microscopy (LSM510, Zeiss, Zaventem, Belgium) was used for detecting pimonidazole immunostaining as previously reported. Spheroids from a same experiment were imaged with the same gain and exposure settings. In some experiments, OXPHOSi treatment was combined with irradiation using a ^137Cs γ-irradiator (IBL-637; CIS-BioInternational, Saclay, France) as previously described.
Figure 5 Inhibition of 3D tumor spheroid growth (Assay #3). […] Drug exposure without (A) or with irradiation (B) was associated with a significant reduction in spheroid sizes vs. untreated spheroids (not shown).

For `Cc1n[nH]c(C)c1Cc1sc2c(c1C(=O)N1C[C@H](O)CO1)c(=O)n(C)c(=O)n2CC(C)C` [AR-C155858], the “restoration of OCR / OXPHOS activity in cells exposed to aa compound” value (intact CT26 cancer cells) was “failed to restore OCR”.

With `Cc1nc(-c2nc(-c3ccc(OC(F)(F)F)cc3)no2)nn1Cc1cccc(N2CCC(S(C)(=O)=O)CC2)c1` [IACS-010759, reference compound] the “concentration giving the same extent of maximal OCR inhibition” value (mitochondrial complex I) was 100 nM and the “increase in extracellular acidification rate (ECAR)” value (intact CT26 cancer cells; non-permeabilized CT26 cells, 100 nM) was “+29 ± 9%”.

For `COC(=O)C(C)=O` [Methylpyruvate, methylpyruvate], the “restoration of OCR / OXPHOS activity in cells exposed to aa compound” value (intact CT26 cancer cells) was “failed to restore OXPHOS activity”.

In the case of `NC(=O)c1nnn(Cc2cc(Cl)c(C(=O)c3ccccc3)c(Cl)c2)c1N` [ab], the “[LAC] increase” value [1] is reported as about 2 µmol/h/mg and the IC50 (mitochondrial complex I) is reported as about 10 µM.

For `Cc1ccc(C(=O)c2c(Cl)cc(Cn3nnc(C(N)=O)c3N)cc2Cl)cc1` [ac], the “[LAC] increase” value [1] was about 2 µmol/h/mg and the IC50 (mitochondrial complex I) was about 10 µM.

`Cc1cccc(C(=O)c2c(Cl)cc(Cn3nnc(C(N)=O)c3N)cc2Cl)c1` [ad] was tested, and the “[LAC] increase” value [1] was about 2 µmol/h/mg and the IC50 (mitochondrial complex I) was about 10 µM.

With `COc1ccc(C(=O)c2c(Cl)cc(Cn3nnc(C(N)=O)c3N)cc2Cl)cc1` [ae] the “[LAC] increase” value [1] was about 2 µmol/h/mg and the IC50 (mitochondrial complex I) was about 10 µM.

In the case of `NC(=O)c1nnn(Cc2cc(Cl)c(C(=O)c3ccc(OC(F)(F)F)cc3)c(Cl)c2)c1N` [af], the “[LAC] increase” value [1] is reported as about 2 µmol/h/mg and the IC50 (mitochondrial complex I) is reported as about 10 µM.

`NC(=O)c1nnn(Cc2cc(Cl)c(C(=O)c3ccc(C(F)(F)F)cc3)c(Cl)c2)c1N` [ag] was tested, and the “L-lactate release compared with reference compound aa” value [1] was “more potent inducers of L-lactate release”, the “[LAC] increase” value [1] was about 4 µmol/h/mg and the “cytotoxic / growth inhibitory effects” value (CT26 colon cancer cells) was “very limited effects”. The growth inhibitory activity (breast 4T1 cancer cells) was “more significant growth inhibitory activity”, the “antiproliferative effects in Siha compared with MDA-MB-231 cells” value [2] was “Larger antiproliferative effects” and the “spheroid growth inhibition compared with reference compound aa” value (3D tumor CT26 spheroids) was “inhibited spheroid growth to the same extent as compound aa”.

`NC(=O)c1nnn(Cc2cc(Cl)c(C(=O)c3ccc4ccccc4c3)c(Cl)c2)c1N` [ah] was tested, and the “[LAC] increase” value [1] was about 2 µmol/h/mg, the “pattern of OCR inhibition activity relative to aa” value (mitochondrial complex I; 1 and 10 µM) was “hypoactive” and the IC50 (mitochondrial complex I) was about 10 µM.

`NC(=O)c1nnn(Cc2cc(Cl)c(CN3CCOCC3)c(Cl)c2)c1N` [ai] was tested, and the “[LAC] increase” value [1] was about 2 µmol/h/mg, the IC50 (mitochondrial complex I) was over 10 µM and the “significant inhibition of complex I” value (mitochondrial complex I) was “did not show significant inhibition of complex I”.

In the case of `C=CCNC(=O)c1nnn(Cc2cc(Cl)c(C(=O)c3ccc(C(F)(F)F)cc3)c(Cl)c2)c1N` [ak], the “[LAC] increase” value [1] is reported as about 0 µmol/h/mg and the IC50 (mitochondrial complex I) is reported as over 10 µM.

For `NC(=O)c1nnn(Cc2cc(F)c(C(=O)c3ccc(Cl)cc3)c(F)c2)c1N` [an], the “L-lactate release compared with reference compound aa” value [1] was “more potent inducers of L-lactate release”, the “[LAC] increase” value [1] was about 4 µmol/h/mg and the IC50 (mitochondrial complex I) was about 10 µM. For the same compound, the “spheroid growth inhibition compared with reference compound aa” value (3D tumor CT26 spheroids) was “inhibited spheroid growth to the same extent as compound aa”.

With `CC(=O)c1c(Cl)cc(Cn2nnc(C(N)=O)c2N)cc1Cl` [ao] the “[LAC] increase” value [1] was about 2 µmol/h/mg, the IC50 (mitochondrial complex I) was over 10 µM and the “significant inhibition of complex I” value (mitochondrial complex I) was “did not show significant inhibition of complex I”.

For `Cc1cc(C)cc(Cn2nnc(C(N)=O)c2N)c1` [ap], the “[LAC] increase” value [1] was about 0 µmol/h/mg and the IC50 (mitochondrial complex I) was over 10 µM.

`NC(=O)c1nnn(Cc2cc(Cl)cc(Cl)c2)c1N` [aq] was tested, and the “[LAC] increase” value [1] was about 0 µmol/h/mg and the IC50 (mitochondrial complex I) was over 10 µM.

With `O=C(O)c1cn(Cc2cc(Cl)c(C(=O)c3ccc(Cl)cc3)c(Cl)c2)nn1` [ar] the “[LAC] increase” value [1] was about 0 µmol/h/mg and the IC50 (mitochondrial complex I) was over 10 µM.

`NC(=O)c1cn(Cc2cc(Cl)c(C(=O)c3ccc(Cl)cc3)c(Cl)c2)nn1` [as] was tested, and the “[LAC] increase” value [1] was about 2 µmol/h/mg, the IC50 (mitochondrial complex I) was over 10 µM and the “significant inhibition of complex I” value (mitochondrial complex I) was “did not show significant inhibition of complex I”.

`O=C(c1ccc(Cl)cc1)c1c(Cl)cc(Cn2cc(CO)nn2)cc1Cl` [av] was tested, and the “[LAC] increase” value [1] was about 0 µmol/h/mg and the IC50 (mitochondrial complex I) was over 10 µM.

`NC(=O)c1cn(Cc2cc(F)c(C(=O)c3ccc(Cl)cc3)c(F)c2)nn1` [aw] was tested, and the “[LAC] increase” value [1] was about 0 µmol/h/mg and the IC50 (mitochondrial complex I) was over 10 µM.

With `Nc1c(C(=O)O)nnn1Cc1ccc(NC(=O)c2ccc(Cl)cc2)cc1` [ba] the “[LAC] increase” value [1] was about 0 µmol/h/mg and the IC50 (mitochondrial complex I) was over 10 µM.

`Nc1c(C(=O)O)nnn1Cc1cccc(NC(=O)c2ccc(OC(F)(F)F)cc2)c1` [bb] was tested, and the “[LAC] increase” value [1] was about 0 µmol/h/mg and the IC50 (mitochondrial complex I) was over 10 µM.

`CC(C)(C)OC(=O)N1CCC(Nc2cccc(Cn3nnc(C(=O)O)c3N)c2)CC1` [bc] was tested, and the “[LAC] increase” value [1] was about 0 µmol/h/mg and the IC50 (mitochondrial complex I) was over 10 µM.

For `Nc1c(C(=O)O)nnn1Cc1cccc(N2CCOCC2)c1` [bd], the “[LAC] increase” value [1] was about 0 µmol/h/mg and the IC50 (mitochondrial complex I) was over 10 µM.

`Nc1c(C(=O)O)nnn1Cc1ccccc1NC(=O)c1ccc(OC(F)(F)F)cc1` [be] was tested, and the “[LAC] increase” value [1] was about 0 µmol/h/mg and the IC50 (mitochondrial complex I) was over 10 µM.

In the case of `Nc1c(C(=O)O)nnn1Cc1ccccc1N1CCSCC1` [bf], the “[LAC] increase” value [1] is reported as about 0 µmol/h/mg and the IC50 (mitochondrial complex I) is reported as over 10 µM.

For `NC(=O)c1nnn(Cc2cc(Cl)c(Cc3ccc(C(F)(F)F)cc3)c(Cl)c2)c1N` [compound al], the “[LAC] increase” value [1] was about 0 µmol/h/mg and the IC50 (mitochondrial complex I) was over 10 µM.
